{"source": "patent US8030442B2", "about": "“Treatment of injury to the brain by inhibition of acid sensing ion channels” (priority 2004, dated 2011)", "key": {"[1]": {"test_system": "COS-7 cells stably transfected with ASIC1a", "assay": "Acid-induced LDH release in ASIC1a-transfected COS-7 cells", "type": "cell-based", "details": "100 μM, 1 hr pH 6.0, 24 hr", "protocol": "COS-7 cells, a cell line commonly used for expression of ASICs due to its lack of endogenous channels (Chen et al. 1998; Immke and McCleskey 2001 and Escoubas et al. 2000), were cultured in MEM with 10% HS and 1% PenStrep (GIBCO). At ˜50% confluence, cells were cotransfected with cDNAs for ASICs and GFP in pcDNA3 vector using FuGENE6 transfection reagents (Roche Molecular Biochemicals). DNA for ASICs (0.75 μg) and 0.25 μg of DNA for GFP were used for each 35 mm dish. GFP-positive cells were selected for patch-clamp recording 48 hr after transfection. For stable transfection of ASIC1a, 500 μg/mL G418 was added to culture medium 1 week following the transfection. The surviving G418-resistant cells were further plated and passed for >5 passages in the presence of G418. Cells were then checked with patch-clamp and immunofluorescent staining for the expression of ASIC1a.\nTo provide additional evidence that activation of ASIC1a is involved in acid injury, acid injury of nontransfected and ASIC1a transfected COS-7 cells as described above was studied. Following confluence (36-48 hr after plating), cells were treated with either pH 7.4 or 6.0 ECF for 1 hr.\nLDH release was measured 24 hr after acid incubation. […] Background absorbance at 620 was subtracted."}, "cortical neurons [2]": {"test_system": "cortical neurons", "assay": "Acid-induced LDH release in cortical neurons"}, "[3]": {"molecular_target": "T1, ASICs in cortical neurons (Mus musculus, UniProt Q6NXK8)", "T1 construct": "indicating significant Ca^2+ permeability of ASICs in the majority of cortical neurons; endogenous in cells; host or cells: primary cultured mouse cortical neurons", "T1 sequence (Q6NXK8 1-526)": "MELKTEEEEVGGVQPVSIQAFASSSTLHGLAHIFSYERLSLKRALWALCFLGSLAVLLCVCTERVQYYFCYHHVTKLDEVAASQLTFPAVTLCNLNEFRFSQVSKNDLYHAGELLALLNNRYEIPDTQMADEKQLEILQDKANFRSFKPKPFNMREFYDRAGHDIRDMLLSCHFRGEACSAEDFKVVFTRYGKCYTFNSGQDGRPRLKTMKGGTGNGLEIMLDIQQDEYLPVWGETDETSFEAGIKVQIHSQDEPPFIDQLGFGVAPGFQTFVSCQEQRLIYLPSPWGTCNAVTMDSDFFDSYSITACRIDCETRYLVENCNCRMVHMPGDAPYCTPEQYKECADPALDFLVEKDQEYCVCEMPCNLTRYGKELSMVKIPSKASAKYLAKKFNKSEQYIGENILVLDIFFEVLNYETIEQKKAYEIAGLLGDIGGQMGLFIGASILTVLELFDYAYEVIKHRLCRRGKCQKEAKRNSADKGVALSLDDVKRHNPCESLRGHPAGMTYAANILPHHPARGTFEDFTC", "assay": "Ca2+-mediated acid-activated current in cortical neurons (10 mM Ca2+ as only charge carrier)", "type": "cell-based", "details": "pH 6.0, -60 mV, n=6, read-out: peak amplitude of Ca2+-mediated current, % of control"}, "[4]": {"test_system": "cultured hippocampal neurons", "assay": "Seizure-like electrical activity of cultured hippocampal neurons on kyneuric acid removal", "type": "cell-based", "details": "during kyneuric acid removal", "protocol": "The neurons were grown in the presence of kyneuric acid. Removal of the kyneuric acid promoted spontaneous, sustained electrical activity by the neurons.\nThe magnitude and periodicity of the peaks in the voltage traces changed upon exposure to amiloride."}, "[5]": {"test_system": "rat model of transient focal ischemia", "type": "in vivo", "details": "n=11"}, "cortical neurons [6]": {"test_system": "cortical neurons", "type": "cell-based, mouse", "details": "with MK801, CNQX, nimodipine, ω-conotoxin MVIIC; n=6-8"}, "TRPM7 channels": {"molecular_target": "TRPM7 channels (Homo sapiens, UniProt Q96QT4)", "sequence (Q96QT4 whole entry, the tested form may be a part)": "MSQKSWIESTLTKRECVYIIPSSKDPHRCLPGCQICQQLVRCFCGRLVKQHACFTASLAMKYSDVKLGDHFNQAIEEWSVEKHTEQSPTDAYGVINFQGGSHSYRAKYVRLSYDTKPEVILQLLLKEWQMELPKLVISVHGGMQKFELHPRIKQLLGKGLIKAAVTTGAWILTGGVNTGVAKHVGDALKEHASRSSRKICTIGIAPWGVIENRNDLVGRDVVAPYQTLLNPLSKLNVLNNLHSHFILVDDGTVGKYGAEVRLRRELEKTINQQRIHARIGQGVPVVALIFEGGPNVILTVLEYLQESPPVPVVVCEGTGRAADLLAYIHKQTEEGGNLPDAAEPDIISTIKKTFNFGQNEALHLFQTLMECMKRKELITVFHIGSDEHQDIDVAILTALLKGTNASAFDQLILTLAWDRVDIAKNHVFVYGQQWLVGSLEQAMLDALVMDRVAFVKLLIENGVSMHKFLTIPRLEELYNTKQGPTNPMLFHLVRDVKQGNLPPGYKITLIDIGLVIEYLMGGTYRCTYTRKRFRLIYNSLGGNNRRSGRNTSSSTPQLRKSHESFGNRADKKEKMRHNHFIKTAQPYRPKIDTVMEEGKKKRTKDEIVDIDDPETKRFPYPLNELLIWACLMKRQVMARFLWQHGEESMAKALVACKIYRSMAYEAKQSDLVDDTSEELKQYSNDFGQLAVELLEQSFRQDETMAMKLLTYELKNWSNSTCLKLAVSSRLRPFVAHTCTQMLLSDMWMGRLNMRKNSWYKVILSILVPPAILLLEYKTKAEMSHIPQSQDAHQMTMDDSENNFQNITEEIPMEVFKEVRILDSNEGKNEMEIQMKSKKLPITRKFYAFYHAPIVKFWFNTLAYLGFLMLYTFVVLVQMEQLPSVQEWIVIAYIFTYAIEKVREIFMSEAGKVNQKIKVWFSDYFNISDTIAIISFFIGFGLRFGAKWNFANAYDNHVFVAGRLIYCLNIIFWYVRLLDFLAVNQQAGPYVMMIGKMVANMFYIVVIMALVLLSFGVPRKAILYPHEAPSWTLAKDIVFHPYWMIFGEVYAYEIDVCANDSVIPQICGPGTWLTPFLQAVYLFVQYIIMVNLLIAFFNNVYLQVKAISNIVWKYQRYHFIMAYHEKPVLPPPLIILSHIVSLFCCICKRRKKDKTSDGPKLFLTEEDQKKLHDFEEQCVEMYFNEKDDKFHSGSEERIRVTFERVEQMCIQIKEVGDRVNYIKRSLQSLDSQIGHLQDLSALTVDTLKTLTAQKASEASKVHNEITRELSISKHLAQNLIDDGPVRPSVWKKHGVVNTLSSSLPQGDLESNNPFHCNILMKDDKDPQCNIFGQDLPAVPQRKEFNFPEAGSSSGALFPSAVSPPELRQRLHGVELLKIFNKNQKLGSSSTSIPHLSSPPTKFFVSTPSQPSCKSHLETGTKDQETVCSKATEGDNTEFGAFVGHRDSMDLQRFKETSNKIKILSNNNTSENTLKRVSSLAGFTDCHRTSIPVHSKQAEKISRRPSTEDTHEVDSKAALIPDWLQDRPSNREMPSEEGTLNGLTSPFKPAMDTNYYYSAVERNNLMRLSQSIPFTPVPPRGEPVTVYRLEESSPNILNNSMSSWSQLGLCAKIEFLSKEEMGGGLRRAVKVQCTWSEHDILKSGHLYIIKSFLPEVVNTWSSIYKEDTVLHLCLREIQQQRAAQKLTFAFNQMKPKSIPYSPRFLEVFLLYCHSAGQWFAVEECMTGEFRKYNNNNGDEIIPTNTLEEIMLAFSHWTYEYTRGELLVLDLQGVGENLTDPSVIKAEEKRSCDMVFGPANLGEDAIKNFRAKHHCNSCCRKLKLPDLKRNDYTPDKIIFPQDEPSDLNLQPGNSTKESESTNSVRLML", "assay": "TRPM7 conductance, current-voltage relationship", "type": "cell-based", "details": "100 μM or 500 μM, ~10 min", "protocol": "In FIG. 36, after a stable current-voltage relationship (I-V curve) was recorded, amiloride at either 100 μM or 500 μM was perfused to the cell for ˜10 min. The I-V curve in the presence of amilolide was then generated (FIG. 36 A). Similarly in FIG. 36B, after a stable I-V curve was recorded, PcTX venom at 300 ng/ml was perfused to the cell for ˜10 min. The I-V curve in the presence of PcTX venom was then generated."}, "[7]": {"test_system": "cortical neurons cultured from ASIC+/+ and ASIC1-/- mice", "assay": "LDH release in neurons cultured from ASIC+/+ and ASIC1-/- mice", "type": "cell-based, mouse", "protocol": "Following anesthesia with halothane, cerebral cortices were dissected from PI ASIC1^+/+ and ASIC1^−/− mice and incubated with 0.05% trypsin-EDTA for 10 min at 37° C. Tissues were then triturated with fire-polished glass pipettes and plated on poly-L-ornithine-coated 24-well plates or 25×25 mm glass coverslips at a density of 2.5×10^5 cells per well or 10^6 cells per coverslip. Neurons were cultured with MEM supplemented with 10% horse serum (for E16 cultures) or Neurobasal medium supplemented with B27 (for P1 cultures) and used for electrophysiology and toxicity studies after 12 days. Glial growth was suppressed by addition of 5-fluoro-2-deoxyuridine and uridine, yielding cultured cells with ˜90% neurons as determined by NeuN and GFAP staining (data not shown).\nCells were treated with either pH 7.4 or 6.0 ECF for 1 hr. LDH release was measured 24 hr after acid incubation. […] Background absorbance at 620 was subtracted."}, "hippocampal slice": {"test_system": "hippocampal slice", "assay": "Seizure-like activity in hippocampal slices in magnesium-free aCSF", "details": "100 μM for thirty minutes", "protocol": "Hippocampal slices were bathed in magnesium-free artificial cerebrospinal fluid (aCSF). The absence of magnesium in the fluid makes neurons in the slice susceptible to seizure-like electrical activity. Accordingly, the hippocampal slice maintained in magnesium-free fluid provides a model system for epilepsy. Electrical potential was measured prior to addition of any compounds, after treatment with PcTX venom followed by electrical stimulation, after PcTX venom was removed, with amiloride, during transient removal of kyneuric acid, and kainic acid to promote seizure activity in the mice with or without injection of PcTX venom.\nThe three graphs in panel 23A show the electrical potential measured from the same hippocampal slice after electrical stimulation near the beginning of each voltage trace, to promote depolarization followed by re-polarization (a peak(s) in the voltage trace). Electrical stimulation of a control hippocampal slice, bathed in fluid with a physiological magnesium level, produced a single peak in the voltage trace (not shown here). In contrast, as shown here in the first graph of panel 23A, electrical stimulation of a hippocampal slice maintained in aCSF without magnesium produced a series of individual peaks, indicative of seizure-like activity."}}, "note": "Entries after “also recorded” stand apart in the source; their conditions may differ."}
{"smiles": "N=C(N)NC(=O)c1nc(Cl)c(N)nc1N", "note": "[amiloride]", "values": [{"measurement": "acid-induced LDH release", "setting": "[1]", "value": "inhibited acid-induced LDH release"}, {"measurement": "LDH release at 24 hr, % of maximal", "setting": "cortical neurons [2]; 100 μM, 10 min before and during 1 hr pH 6.0, without blocker 45.3%±3.8%", "value": "31.1%±2.5%"}, {"measurement": "LDH release on prolonged incubation", "setting": "cortical neurons [2]; alone, e.g. 5 hr, n=8", "value": "increased LDH release"}, {"measurement": "baseline LDH release", "setting": "cortical neurons [2]; pH 7.4 ECF for 1 hr", "value": "did not affect baseline LDH release"}, {"measurement": "remaining activity at 100 µM", "setting": "[3]", "value": 26, "unit": "%"}, {"measurement": "seizure-like electrical activity of neurons", "setting": "[4]", "value": "blocked the seizure-like electrical activity"}, {"measurement": "infarct volume", "setting": "[5]", "value": "229.7±41.1", "unit": "mm^3"}, {"measurement": "peak and sustained acid-induced increases in [Ca2+]i", "setting": "cortical neurons [6]", "value": "largely inhibited"}, {"measurement": "conductance of TRPM7 channels", "setting": "TRPM7 channels", "value": "had no effect; also recorded: lack of blockade"}, {"measurement": "acid-induced LDH release in ASIC+/+ neurons", "setting": "[7]; 1 hr pH 6.0, n=8-12", "value": "reduced"}, {"measurement": "effect on acid-induced LDH release in ASIC1-/- neurons", "setting": "[7]; knockout of the ASIC1 gene, n=8", "value": "eliminated the effect"}, {"measurement": "peaks in voltage trace after electrical stimulation", "setting": "hippocampal slice", "value": "reduced both the number and amplitude of peaks"}]}
